{"source": "patent US20200000087A1", "about": "“COMPOSITIONS FOR APPLICATION TO AERIAL PARTS OF PLANTS” (EXOSECT LIMITED, priority 2017, published 2020)", "key": {"[1]": {"test_system": "German cockroach, Blattella germanica", "details": "cited from earlier work"}, "[2]": {"test_system": "Zymoseptoria tritici (formerly Septoria tritici)", "assay": "Translaminar activity of Azoxystrobin formulated in Entostat against Z. tritici on wheat", "type": "in vivo", "details": "control of Zymoseptoria tritici; compared with conventional formulation", "description": "• Test item type and Entostat SC contains in 300 g/L Entostat (Polyethylene contents: wax variant), with the wax component formulated with 81.8 g/L Azoxystrobin (8.18% w/w Azoxystrobin in SC) • Test item rate: The Entostat formulation was applied at a rate 2.68 L/ha delivering 219 g a.i/ha (which delivers Azoxystar's maximum label amount of active ingredient). • Reference item type Azoxystar—SC Strobilurin fungicide containing […] and contents: of Azoxystrobin (22.9 w/w Azoxystrobin in SC). • Reference item rate: Azoxystar was applied at the maximum recommended label rate (0.88 L/ha delivering 219 g a.i/ha) • Application interval: Once at wheat growth stage 12\n200 square plastic pots (7×7×8 cm) were filled with J. Arthur Bower No. 1 seedling compost and drenched with tap water. Into each pot six spring wheat (T. aestivum cv. KWS Kielder) seeds were double sown. The pots were placed within four Secret Jardin 120 growth tents in a fully randomised block design of 40 blocks (5 pots per block). All plants were grown under a light, temperature and relative humidity (RH) regime of 16:8 light/dark, 20° C./17° C. and 80% RH. Pots were watered via capillary matting with tap water when required. No additional nutrients were supplied throughout the study. Fourteen days after sowing the six plants in each pot were reduced to three of uniform size. […]"}, "[3]": {"assay": "Azoxystrobin retention on maize seed after Heubach mechanical stress (GC-ECD)", "type": "physicochemical", "description": "• Test item type and 1. Polyethylene Entostat (W3800) containing 499 mg/g contents: Azoxystrobin fungicide. • 2. Carnauba Entostat (W3738) containing 435 mg/g Azoxystrobin fungicide. • Test item rate: When using a commercial standard biological efficacy in maize is observed at […] seed. W3800 and W3738 were applied at […] of that commercial standard a.s. rate Table 1. • Application interval: Single application at the start of the study • Supplier: Entostat, Exosect, UK • Azoxystrobin, Albaugh, USA. • Storage: Pesticide cabinet in formulation laboratory, Exosect\nThe independent factors were, dry powder seed treatment formulation type (W3800 and W3738) and Azoxystrobin application rate (Low, Medium, and High). Residues of the active ingredient Azoxystrobin recovered from maize before and after mechanical stress were quantified. Each treatment will be replicated ten times. Work involving the Heubach Dustmeter was conducted according to know standard procedures.\nSeeds were equilibrated in incubator 308 at 20° C.±2° C. and at 50%±10% relative humidity for at least 48 hours prior to testing.\nTreatments were weighed into sterile 1 L Duran bottles along with 500 g of maize seeds. The treatments were homogenized for 30 seconds by gently agitating using the Stuart Rotator with MIX2040 attachment. 50 maize seeds were removed from each batch, weighed, and placed in a bioassay jar for pre mechanical stress quality control analysis. One 100 g sample were removed from each batch.\nThe 100 g sample was mechanically stressed in the Heubach Dustmeter (Heubach GMbh, Heubachstrasse7, 38685 Langelsheim), following the procedures outlined in TDRF311. Work involving the Heubach Dustmeter was conducted between 23° C. and 29° C. and 30% and 70% relative humidity in Bioassay Room 2. After the cycle, treated seeds were removed from the rotating drum. 50 maize seeds were removed from each batch, weighed, and placed in a bioassay jar for post mechanical stress quality control analysis.\nAzoxystrobin present on the seed samples taken before and after Heubach mechanical stress were analysed using gas chromatography with electron capture detector (GC-ECD). From these values the percentage change of Azoxystrobin a.s. retained by the seeds mechanical stress was calculated.\nPercentage Azoxystrobin retained on maize seed after mechanical stress was modelled using R (version 3.3.1). After testing for normality using a Shapiro-Wilk normality test, ANOVA was used to analyse the data linear model. Percentage Azoxystrobin retention was modelled as a function of the factors formulations type (W3800 and W3738), Azoxystrobin application rate (0.006259, 0.06259 and 0.6259 g a.s./kg seed) and interactions between the factors. Formulation W3800 at its lowest application (0.006259 g a.s./kg seed) was used as the control."}, "[4]": {"test_system": "Triticum aestivum (Spring wheat) variety KWS Alderon", "assay": "Translaminar (herbicidal) activity of Quizalofop-p-ethyl formulations sprayed on wheat, EPPO PP1/135 assessment", "type": "in vivo", "details": "control of volunteer wheat; compared with conventional formulation"}, "[5]": {"assay": "Loading of acetamiprid dry powder seed treatment on seeds", "type": "physicochemical"}, "[6]": {"details": "cited from earlier work"}}, "note": "Like-named read-outs stand apart in the source and are kept apart here.", "data": [{"smiles": "CC1(C)[C@H](C(=O)O[C@H](C#N)c2cccc(Oc3ccccc3)c2)[C@@H]1/C=C(\\Cl)C(F)(F)F", "note": "(racemic) [lambda-cyhalothrin]", "values": [{"measurement": "knock down period", "setting": "[1]; Emulsifiable Concentrate (EC)", "result": 10.33, "unit": "min"}, {"measurement": "knock down period", "setting": "[1]; microencapsulated formulation", "result": 17.16, "unit": "min"}]}, {"smiles": "CO/C=C(/C(=O)OC)c1ccccc1Oc1cc(Oc2ccccc2C#N)ncn1", "note": "[Azoxystrobin, Methyl (2E)-2-(2-{[6-(2-cyanophenoxy)pyrimidin-4-yl]oxy}phenyl)-3-methoxyacrylate]", "values": [{"measurement": "effectiveness of Entostat matrix encapsulated formulation as foliar spray", "setting": "[2]", "result": "as effective as a conventional Suspension Concentrate (SC) formulation"}, {"measurement": "less Azoxystrobin retained compared to the lowest application rate", "setting": "[3]; high application rate (0.6259 g a.s./Kg)", "result": 21, "unit": "%"}, {"measurement": "Azoxystrobin retained of original application", "setting": "[3]; high application rate (0.6259 g a.s./Kg), across formulations", "result": 41, "unit": "%"}, {"measurement": "Azoxystrobin retained of original application", "setting": "[3]; lowest application rate (0.006259 g a.s./Kg), across formulations W3800 and W3738", "result": 62, "unit": "%"}, {"measurement": "less Azoxystrobin retained compared to the lowest application rate", "setting": "[3]; medium application rate (0.06259 g a.s./Kg)", "result": 7, "unit": "%"}, {"measurement": "Azoxystrobin retained of original application", "setting": "[3]; medium application rate (0.06259 g a.s./Kg), across formulations", "result": 55, "unit": "%"}, {"measurement": "dose of Azoxystrobin which remains on the surface of the maize", "setting": "[3]; medium dose, after mechanical stress", "result": 0.0346, "unit": "mg·s/kg"}]}, {"smiles": "CCOC(=O)[C@@H](C)Oc1ccc(Oc2cnc3cc(Cl)ccc3n2)cc1", "note": "[Quizalofop-p-ethyl, ethyl (2R)-2-[4-(6-chloroquinoxalin-2-yl)oxyphenoxy]propanoate]", "values": [{"measurement": "effectiveness of Entostat matrix encapsulated formulation as foliar spray", "setting": "[4]", "result": "as effective as a conventional Suspension Concentrate (SC) formulation"}]}, {"smiles": "C/C(=N\\C#N)N(C)Cc1ccc(Cl)nc1", "note": "[acetamiprid]", "values": [{"measurement": "relative percentage loading on seeds", "setting": "[5]; after 10 fold decrease in powder application", "result": 80, "unit": "%"}, {"measurement": "relative percentage loading on seeds", "setting": "[5]; before 10 fold decrease in powder application", "result": 52, "unit": "%"}]}, {"smiles": "CCOP(=S)(OCC)Oc1nc(Cl)c(Cl)cc1Cl", "note": "[chlorpyrifos]", "values": [{"measurement": "time to release 50% of the insecticide", "setting": "[6]; encapsulated formulation, sodium alginate and starch microspheres", "result": 5, "unit": "days"}, {"measurement": "time to release 50% of chlorpyrifos", "setting": "[6]; free chlorpyrifos", "result": 1, "unit": "days"}]}]}
